Source: publication PMC10249358, “Elucidation of Short Linear Motif-Based Interactions of the FERM Domains of Ezrin, Radixin, Moesin, and Merlin” (Biochemistry, 2023)
Each block holds one substance with its values, some of them ahead of it. No end group written: not given here.

What was measured:
moesin FERM domain [1] = target: T1, moesin FERM domain (Homo sapiens, UniProt P26038); assay: Direct binding fluorescence polarization (FP) assay, FITC-labeled probe peptides; details: FITC-labeled probe peptide 5 nM titrated with FERM domain, 20 mM HEPES pH 7.4, 150 mM NaCl, 0.05% Tween-20, 3 mM DTT, quadratic 1:1 fit, n = 3 technical repeats
T1 construct: pGEX4T Moesin (P26038) FERM was a gift from Vijaya Ramesh (Addgene plasmid # 1163); GST (N, cleaved yes); made in house; host or cells: E. coli BL21(DE3)
T1 sequence (P26038 2-295 limits assumed): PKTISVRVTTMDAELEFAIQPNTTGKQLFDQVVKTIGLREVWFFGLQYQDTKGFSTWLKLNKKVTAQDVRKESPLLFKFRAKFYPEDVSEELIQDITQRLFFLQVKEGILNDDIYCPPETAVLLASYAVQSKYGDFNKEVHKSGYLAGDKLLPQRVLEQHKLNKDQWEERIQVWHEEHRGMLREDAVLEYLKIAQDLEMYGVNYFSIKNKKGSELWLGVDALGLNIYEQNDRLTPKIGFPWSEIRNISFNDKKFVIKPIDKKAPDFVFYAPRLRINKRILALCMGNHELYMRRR
Description: (§1) For fluorescence polarization (FP) experiments of merlin FERM, the GST tag was removed using HRV3C protease by incubating the enzyme (100 units/10 mg protein) with protein overnight at 4 °C in the dialysis buffer (20 mM HEPES, pH 7.4, 150 mM NaCl, 0.05% Tween-20, and 3 mM DTT). The following day, the cleaved GST and the protease were removed using reverse Ni-IMAC, and the protein was concentrated to the working concentration. For FP experiments using moesin FERM, thrombin (Sigma) was used to cleave the GST tag from moesin FERM domain on GSH sepharose beads (Cytiva) and incubated overnight at 4 °C under gentle rotation. Next day, the beads were collected by gentle centrifugation, while the supernatant containing thrombin and moesin FERM domain was passed through a HiTrap benzamidine column (Cytiva). The protein was then eluted using a high salt (0.7–1 M NaCl) concentration. The buffer was then exchanged using the PD-10 desalting column (Cytiva) into FP buffer (20 mM HEPES, pH 7.4, 150 mM NaCl, 0.05% Tween-20, and 3 mM DTT).
(§2) Synthetic peptides were obtained at 95% purity (GeneCust) and were dissolved in FP buffer (described earlier). To obtain direct binding saturation data, a dilution series of moesin FERM domain was prepared using the FP buffer, and then an equal volume of 10 nM FITC-labeled peptide was added to each sample. After mixing, the FP signals were recorded using SpectraMax iD5 (Molecular Devices). Data were analyzed with GraphPad Prism version 7.0.0 for MacOS (GraphPad Software, San Diego, California USA). A quadratic equation for equilibrium binding[37] was used to fit the obtained data. [drawing 1] where pept indicates the probe peptide concentration (5 nM), X indicates the protein concentration, the constant A being the signal amplitude divided by probe peptide concentration, and B is the plateau value. Direct binding experiments were performed and analyzed the same way in the presence of saturating concentration of unlabeled peptides.

moesin FERM domain [2] = target: T1, moesin FERM domain; assay: Direct binding FP in the presence of saturating concentration of unlabeled competing peptide
Description: as §2
We next explored the interplay between the F3a and F3b ligands by determining the affinity of FITC-labeled model peptides in the presence of high concentrations of the competing ligands (Figure 6A,B). […] The asymmetric competition could potentially be explained by an allosteric model where binding to the F3a site induces a conformational change of the protein that reduces the affinity for F3b ligands.

moesin FERM domain [3] = target: T1, moesin FERM domain; assay: Competitive FP assay, unlabeled peptide outcompetes FITC-labeled probe; assay type: binding
Description: (§3) 25 μL of this premix was added to 25 μL of titrated target peptide. FP signals were determined as described earlier. […] All measurements were performed at least in triplicates.

moesin FERM M285A/H288A = target: T2, moesin FERM M285A/H288A (Homo sapiens, UniProt P26038, H288A/M285A); assay: Direct binding FP assay with F3b-site mutant; details: direct binding of FITC-labeled probe; Table S7
T2 construct: we generated a mutant moesin FERM domain (M285A and H288A); GST (N, cleaved yes); made in house; host or cells: E. coli BL21(DE3)
T2 sequence (P26038 2-295 M285A/H288A limits assumed): as the sequence (P26038 2-295 limits assumed) above, with M284A, H287A counted along it
From the text: Synthetic genes encoding for human merlin FERM (P35240; amino acids 22–312) and radixin FERM (P35241; 5–295) domains were commercially synthesized (ThermoFisher) and cloned into pETM33 using NcoI and EcoRI restriction sites. pGEX4T Moesin (P26038) FERM was a gift from Vijaya Ramesh (Addgene plasmid # 1163[27]). pGEX4T1 Ezrin (P15311) FERM domain was a kind gift from Volker Gerke.[28] Human NOP53-HA-pcDNA was a kind gift from Ronit Sarid.[29] The NOP53 gene was polymerase chain reaction (PCR)-amplified and cloned into CMV10 using HindIII and EcoRI. RRBP1-GFP was kindly provided by Alexander F. Palazzo.[30] HA-HIF1-alpha-pcDNA3 was a gift from William Kaelin (Addgene plasmid # 18949[31]). pcDNA3 LATS1 was a gift from Erich Nigg (Addgene plasmid # 41156[32]). […]
Synthetic peptides were obtained at 95% purity (GeneCust) and were dissolved in FP buffer (described earlier). […] After mixing, the FP signals were recorded using SpectraMax iD5 (Molecular Devices). Data were analyzed with GraphPad Prism version 7.0.0 for MacOS (GraphPad Software, San Diego, California USA). […] Direct binding experiments were performed and analyzed the same way in the presence of saturating concentration of unlabeled peptides.
To validate the models on the receptor side, we generated a mutant moesin FERM domain (M285A and H288A) and determined the effect on the affinity. […]

radixin FERM domain = target: T3, radixin FERM domain (Homo sapiens, UniProt P35241); assay: Competitive FP assay, unlabeled peptide outcompetes FITC-labeled probe; assay type: binding; details: competition FP, unlabeled peptide vs FITC-KIRREL3 probe; at least triplicates
T3 construct: radixin FERM (P35241; 5–295) domains were commercially synthesized; His-GST (N); made in house; host or cells: E. coli BL21(DE3)
T3 sequence (P35241 5-295): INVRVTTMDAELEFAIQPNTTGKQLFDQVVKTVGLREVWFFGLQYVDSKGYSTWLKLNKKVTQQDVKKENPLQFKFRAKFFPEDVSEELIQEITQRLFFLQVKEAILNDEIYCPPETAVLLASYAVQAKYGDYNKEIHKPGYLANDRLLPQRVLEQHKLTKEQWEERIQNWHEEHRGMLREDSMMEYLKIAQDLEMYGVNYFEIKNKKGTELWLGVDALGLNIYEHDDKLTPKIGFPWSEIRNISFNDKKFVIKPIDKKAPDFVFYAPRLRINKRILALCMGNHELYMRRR
Description: as §3

merlin FERM domain = target: T4, merlin FERM domain (Homo sapiens, UniProt P35240); assay: Direct binding fluorescence polarization (FP) assay, FITC-labeled probe peptides; details: FITC-labeled probe peptide 5 nM titrated with FERM domain, 20 mM HEPES pH 7.4, 150 mM NaCl, 0.05% Tween-20, 3 mM DTT, quadratic 1:1 fit, n = 3 technical repeats, N.B. within the concentration range tested
T4 construct: human merlin FERM (P35240; amino acids 22–312); His-GST (N, cleaved yes); made in house; host or cells: E. coli BL21(DE3)
T4 sequence (P35240 22-312): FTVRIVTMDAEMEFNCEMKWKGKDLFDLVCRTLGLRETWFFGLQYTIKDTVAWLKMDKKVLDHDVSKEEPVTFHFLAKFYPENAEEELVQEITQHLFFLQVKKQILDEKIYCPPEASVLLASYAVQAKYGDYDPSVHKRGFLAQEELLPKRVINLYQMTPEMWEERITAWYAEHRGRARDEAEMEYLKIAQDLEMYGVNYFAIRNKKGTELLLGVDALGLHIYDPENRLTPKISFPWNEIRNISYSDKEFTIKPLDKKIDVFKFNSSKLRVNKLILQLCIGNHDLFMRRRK
Description: as §1, §2

[4] = direct binding FP in presence of excess unlabeled KIRREL3 (80 μM), Figure 6E, read-out: KD of FITC-labeled probe for moesin FERM, saturating peptide KIRREL3
[5] = direct binding FP in presence of excess unlabeled TBX4 (80 μM), Figure 6F, read-out: KD of FITC-labeled probe for moesin FERM, saturating peptide TBX4
[6] = moesin FERM, unlabeled peptide at about 100 times KD (80–150 μM)
[7] = competitive FP using WT FITC-labeled ZNF622 as probe, Figure 5D, read-out: KD' (moesin FERM, ZNF622 peptide variants)
[8] = competitive FP using FITC-KIRREL3_637–652 as probe, Figure 4G, read-out: KD' (moesin FERM, KIRREL3 and TBX4 peptide variants)

Kd (moesin FERM domain [1]): 3000 ± 300 nM
Kd (moesin FERM domain [2]; [4]): 3300 ± 200 nM
Kd (moesin FERM domain [2]; [5]): 3400 ± 200 nM
Substance: APQMDWSKKNELFSNL [EBP50_343–358, reference compound]

Kd (moesin FERM domain [3]; read-out: moesin KD′): 2300 ± 100 nM
Substance: ITGSYSVSESPFFSPI [MISP595–610]

effect of excess unlabeled peptide on binding of FITC-EBP50 / FITC-ZNF622 to the F3a site (moesin FERM domain [2]; [6]): not binding
effect of excess unlabeled peptide on binding of FITC-KIRREL3 / FITC-TBX4 to the F3b site (moesin FERM domain [2]; [6]): blocked binding
Substance: KIRREL3_634–652: unlabeled F3b ligand used at 80 μM as saturating competitor; residue range as printed (TNGYYSVNTFKEHHSTPTI)

Kd (moesin FERM domain [3]; [7]): 2300 ± 100 nM
Substance: LEAADFYDFRSSYPDH

Kd (moesin FERM domain [3]; [8]): 110 ± 10 nM
Substance: TNGAYSVNTFKEHHST

Kd (moesin FERM domain [3]; [8]): 58000 ± 5000 nM
Substance: TNGYASVNTFKEHHST

KD, merlin FERM domain (merlin FERM domain): N.B.
Substance: YYSVNTFKEHHSTPTI [KIRREL3_637–652]

Further lines, the substance ahead of its results:

Substance: FYELAHQLPLPHNVSS [HIF1A37–52]
Kd (moesin FERM domain [3]; competition FP, determined using FITC-ZNF622 as the probe peptide (footnote b), read-out: moesin KD′): 3000 ± 400 nM

Substance: LEFADAYDFRSSYPDH
Kd (moesin FERM domain [3]; [7]): 85000 ± 2000 nM

Substance: LEFADFYAFRSSYPDH
Kd (moesin FERM domain [3]; [7]): 50000 ± 2000 nM

Substance: LEFADFYDFRSSAPDH
Kd (moesin FERM domain [3]; [7]): 2800 ± 100 nM

Substance: LEFADFYDFRSSYPDH [ZNF622_341–356]
Kd (moesin FERM M285A/H288A): 1300 ± 100 nM
Kd (moesin FERM domain [3]; [7]): 1400 ± 100 nM
Kd (moesin FERM domain [1]): 1000 ± 100 nM
Kd (moesin FERM domain [2]; [4]): 1400 ± 100 nM
Kd (moesin FERM domain [2]; [5]): 1300 ± 200 nM

Substance: LYTLPDDSTHQLLQPH [BOC1000–1015]
Kd (radixin FERM domain): 17000 ± 2000 nM

Substance: SYSVQTMETVPYQPFP [TBX4_428–443]
Kd (moesin FERM domain [3]; [8]): 1000 ± 100 nM
KD, merlin FERM domain (merlin FERM domain): N.B.

Substance: THHKALQEIRNSLLPF [LATS1_73–88, reference compound]
Kd (moesin FERM M285A/H288A): 1300 ± 100 nM
Kd (moesin FERM domain [1]): 1000 ± 100 nM

Substance: TNGYYSANTFKEHHST
Kd (moesin FERM domain [3]; [8]): 50000 ± 6000 nM

Substance: TNGYYSVNTFKEHHST
Kd (moesin FERM domain [3]; [8]): 100 ± 10 nM
